In US20250263459A1, “STABILIZED PACAP PEPTIDE” (SENJU PHARMACEUTICAL CO., LTD., priority 2019, published 2025):
Starred links: 1 amine or outer side, 2 acyl side, 3 side chain; linkers in the order of their positions; H or OH if unused. Non-standard residues stand in square brackets, D forms with d. Residues, ends and D or L forms follow the SMILES beside them. No end group written: not given here. *: point of attachment. Ala(1H-tetrazol-5-yl) = N[C@@H](Cc1nnn[nH]1)C(=O)O; X2 = O=C([C@H](Cc1noc(=O)[nH]1)N[*:1])[*:2]; Tz = tetrazole-substituted aspartic acid; X1 = O=C([C@@H](Cc1nnn[nH]1)N[*:1])[*:2]; X3 = O=C([C@H](CCc1nnn[nH]1)N[*:1])[*:2]; Nle = CCCC[C@H](N)C(=O)O; Propionyl = CCC(=O)*

T1: PAC1 receptor (UniProt P41586 21-468, limits assumed)
T1 sequence (looked up): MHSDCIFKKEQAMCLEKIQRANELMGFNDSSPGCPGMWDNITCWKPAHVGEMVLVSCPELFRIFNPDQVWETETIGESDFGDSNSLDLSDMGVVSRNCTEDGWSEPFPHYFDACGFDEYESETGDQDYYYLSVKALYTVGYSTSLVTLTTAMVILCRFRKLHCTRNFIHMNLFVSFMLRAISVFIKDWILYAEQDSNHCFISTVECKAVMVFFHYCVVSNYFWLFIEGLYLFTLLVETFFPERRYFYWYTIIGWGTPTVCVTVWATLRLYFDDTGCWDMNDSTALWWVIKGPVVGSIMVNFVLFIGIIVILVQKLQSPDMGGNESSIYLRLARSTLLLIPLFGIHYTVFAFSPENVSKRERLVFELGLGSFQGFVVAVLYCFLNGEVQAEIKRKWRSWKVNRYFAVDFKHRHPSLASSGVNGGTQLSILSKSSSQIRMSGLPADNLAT

T2: VPAC1 receptor (UniProt P32241 31-457, limits assumed)
T2 sequence (looked up): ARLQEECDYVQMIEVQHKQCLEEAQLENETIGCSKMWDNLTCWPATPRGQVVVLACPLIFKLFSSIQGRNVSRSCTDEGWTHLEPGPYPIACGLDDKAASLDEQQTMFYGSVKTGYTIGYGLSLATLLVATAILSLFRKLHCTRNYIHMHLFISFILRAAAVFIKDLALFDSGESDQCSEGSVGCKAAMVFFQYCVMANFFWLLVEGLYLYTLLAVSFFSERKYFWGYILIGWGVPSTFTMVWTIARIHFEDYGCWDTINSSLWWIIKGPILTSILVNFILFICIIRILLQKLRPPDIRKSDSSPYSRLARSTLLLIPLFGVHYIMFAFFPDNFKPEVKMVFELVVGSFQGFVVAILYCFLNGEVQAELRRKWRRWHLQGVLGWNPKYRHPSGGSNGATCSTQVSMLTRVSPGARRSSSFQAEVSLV


Columns and labels:
[1] = Stability test 1: survival rate of peptide in phosphate buffer (pH 7.0) after storage, HPLC; format: physicochemical; conditions: 100 μM peptide, phosphate buffer pH 7.0, 40° C.; for survival rate after correction for water, 40° C. 2 week: 2 weeks (Table 6); for survival rate after correction for water, 40° C. 8 week: 8 weeks (Table 6)
Protocol: The 1.0 mM peptide solutions were then diluted with phosphate buffer to 100 μM. […] The prepared peptide solutions were incubated for one month or 2 months in a 40° C. thermostatic bath to obtain stored samples.
Using the total weight of the aqueous peptide solution and storage vessel as the specimen weight, measurements were recorded as the specimen weights before storage and the specimen weights after storage under different storage conditions. The empty weight of the storage vessel was also measured, and the moisture permeability was determined by the following formula.
After stirring the standard sample and the stored samples with a vortex mixer, each peptide solution was transferred to an HPLC vial (Deactivated Qsert vial by Waters Co.). Reverse-phase HPLC (HPLC system: Prominence by Shimadzu Corp.) was conducted under the conditions shown in Table 3 below for analysis of the peptide solutions, and chromatograms were obtained.
The peak area value for the peptide in the chromatogram was calculated, and the survival rate (survival rate before correction for water) was calculated using formula (2). The survival rate after correction for water was also calculated from the survival rate before correction for water using formula (3) to take into account the permeability of the container.
Peptide solutions prepared by the same method as [Measuring sample preparation 1] for the peptides synthesized in Example 2 (peptides 13 to 16) were incubated for 2 weeks and 8 weeks in a thermostatic bath at 40° C. to obtain stored samples.
Peptide solutions prepared by the same method as [Measuring sample preparation 1] for the peptides synthesized in Example 2 (peptides 17 to 21) were incubated for 4 weeks in a thermostatic bath at 40° C. to obtain stored samples.
A peptide solution prepared by the same method as [Measuring sample preparation 1] for peptide 22 synthesized in Example 2 was incubated for 1 week and 4 weeks in a thermostatic bath at 40° C. to obtain stored samples.

PAC1 receptor = biological target: T1, PAC1 receptor; assay: cell-based or functional assay
VPAC1 receptor = biological target: T2, VPAC1 receptor; assay: cell-based or functional assay

| Molecule | survival rate after correction for water, 40° C. 2 week [1] | survival rate after correction for water, 40° C. 8 week [1] | other results |
| --- | --- | --- | --- |
| CCCC[C@H](NC(=O)[C@H](CCC(N)=O)NC(=O)[C@H](CCCCN)NC(=O)[C@H](CCCNC(=N)N)NC(=O)[C@H](Cc1ccc(O)cc1)NC(=O)[C@H](CCCNC(=N)N)NC(=O)[C@H](CO)NC(=O)[C@H](Cc1ccc(O)cc1)NC(=O)[C@H](CO)NC(=O)[C@H](Cc1nnn[nH]1)NC(=O)[C@@H](NC(=O)[C@H](Cc1ccccc1)NC(=O)[C@@H](NC(=O)CNC(=O)[C@@H](Cc1nnn[nH]1)NC(=O)[C@H](CO)NC(=O)[C@@H](N)Cc1c[nH]cn1)[C@@H](C)CC)[C@@H](C)O)C(=O)N[C@@H](C)C(=O)N[C@H](C(=O)N[C@@H](CCCCN)C(=O)N[C@@H](CCCCN)C(=O)N[C@@H](Cc1ccc(O)cc1)C(=O)N[C@@H](CC(C)C)C(=O)N[C@@H](C)C(=O)N[C@@H](C)C(=O)N[C@H](C(=O)N[C@@H](CC(C)C)C(N)=O)C(C)C)C(C)C [Peptide 15, HSTz(D)GI FTTzSY SRYRK QNIAVK KYLAA VL] (H-HS[X1]GIFT[Ala(1H-tetrazol-5-yl)]SYSRYRKQ[Nle]AVKKYLAAVL-NH2) | 95.6% | 81.3% |  |
| CCCC[C@H](NC(=O)[C@H](CCC(N)=O)NC(=O)[C@H](CCCCN)NC(=O)[C@H](CCCNC(=N)N)NC(=O)[C@H](Cc1ccc(O)cc1)NC(=O)[C@H](CCCNC(=N)N)NC(=O)[C@H](CO)NC(=O)[C@H](Cc1ccc(O)cc1)NC(=O)[C@H](CO)NC(=O)[C@@H](Cc1nnn[nH]1)NC(=O)[C@@H](NC(=O)[C@H](Cc1ccccc1)NC(=O)[C@@H](NC(=O)CNC(=O)[C@@H](Cc1nnn[nH]1)NC(=O)[C@H](CO)NC(=O)[C@@H](N)Cc1c[nH]cn1)[C@@H](C)CC)[C@@H](C)O)C(=O)N[C@@H](C)C(=O)N[C@H](C(=O)N[C@@H](CCCCN)C(=O)N[C@@H](CCCCN)C(=O)N[C@@H](Cc1ccc(O)cc1)C(=O)N[C@@H](CC(C)C)C(=O)N[C@@H](C)C(=O)N[C@@H](C)C(=O)N[C@H](C(=O)N[C@@H](CC(C)C)C(N)=O)C(C)C)C(C)C [Peptide 13, HSTz(D)GI FTTz(D)SY SRYRK QNIAVK KYLAA VL] (H-HS[X1]GIFT[X1]SYSRYRKQ[Nle]AVKKYLAAVL-NH2) | 96.2% | 84.6% |  |
| CCCC[C@H](NC(=O)[C@H](CCC(N)=O)NC(=O)[C@H](CCCCN)NC(=O)[C@H](CCCNC(=N)N)NC(=O)[C@H](Cc1ccc(O)cc1)NC(=O)[C@H](CCCNC(=N)N)NC(=O)[C@H](CO)NC(=O)[C@H](Cc1ccc(O)cc1)NC(=O)[C@H](CO)NC(=O)[C@H](CCc1nnn[nH]1)NC(=O)[C@@H](NC(=O)[C@H](Cc1ccccc1)NC(=O)[C@@H](NC(=O)CNC(=O)[C@H](Cc1nnn[nH]1)NC(=O)[C@H](CO)NC(=O)[C@@H](N)Cc1c[nH]cn1)[C@@H](C)CC)[C@@H](C)O)C(=O)N[C@@H](C)C(=O)N[C@H](C(=O)N[C@@H](CCCCN)C(=O)N[C@@H](CCCCN)C(=O)N[C@@H](Cc1ccc(O)cc1)C(=O)N[C@@H](CC(C)C)C(=O)N[C@@H](C)C(=O)N[C@@H](C)C(=O)N[C@H](C(=O)N[C@@H](CC(C)C)C(N)=O)C(C)C)C(C)C [Peptide 16, HSTzGI FTegTzSY SRYRK QNIAVK KYLAA VL] (H-HS[Ala(1H-tetrazol-5-yl)]GIFT[X3]SYSRYRKQ[Nle]AVKKYLAAVL-NH2) | 94.4% | 80.3% |  |
| CCCC[C@H](NC(=O)[C@H](CCC(N)=O)NC(=O)[C@H](CCCCN)NC(=O)[C@H](CCCNC(=N)N)NC(=O)[C@H](Cc1ccc(O)cc1)NC(=O)[C@H](CCCNC(=N)N)NC(=O)[C@H](CO)NC(=O)[C@H](Cc1ccc(O)cc1)NC(=O)[C@H](CO)NC(=O)[C@H](Cc1nnn[nH]1)NC(=O)[C@@H](NC(=O)[C@H](Cc1ccccc1)NC(=O)[C@@H](NC(=O)CNC(=O)[C@H](Cc1nnn[nH]1)NC(=O)[C@H](CO)NC(=O)[C@H](Cc1c[nH]cn1)NC(=O)CC)[C@@H](C)CC)[C@@H](C)O)C(=O)N[C@@H](C)C(=O)N[C@H](C(=O)N[C@@H](CCCCN)C(=O)N[C@@H](CCCCN)C(=O)N[C@@H](Cc1ccc(O)cc1)C(=O)N[C@@H](CC(C)C)C(=O)N[C@@H](C)C(=O)N[C@@H](C)C(=O)N[C@H](C(=O)N[C@@H](CC(C)C)C(N)=O)C(C)C)C(C)C [Peptide 17, HSTzGI FTTzSY SRYRK QNIAVK KYLAA VL] (Propionyl-HS[Ala(1H-tetrazol-5-yl)]GIFT[Ala(1H-tetrazol-5-yl)]SYSRYRKQ[Nle]AVKKYLAAVL-NH2) |  |  | survival rate after correction for water, 40° C. 4 week ([1]; 4 weeks (Table 8)): 59.2% |
| CCCC[C@H](NC(=O)[C@H](CCC(N)=O)NC(=O)[C@H](CCCCN)NC(=O)[C@H](CCCNC(=N)N)NC(=O)[C@H](Cc1ccc(O)cc1)NC(=O)[C@H](CCCNC(=N)N)NC(=O)[C@H](CO)NC(=O)[C@H](Cc1ccc(O)cc1)NC(=O)[C@H](CO)NC(=O)[C@@H](Cc1nnn[nH]1)NC(=O)[C@@H](NC(=O)[C@H](Cc1ccccc1)NC(=O)[C@@H](NC(=O)CNC(=O)[C@H](Cc1nnn[nH]1)NC(=O)[C@H](CO)NC(=O)[C@@H](N)Cc1c[nH]cn1)[C@@H](C)CC)[C@@H](C)O)C(=O)N[C@@H](C)C(=O)N[C@H](C(=O)N[C@@H](CCCCN)C(=O)N[C@@H](CCCCN)C(=O)N[C@@H](Cc1ccc(O)cc1)C(=O)N[C@@H](CC(C)C)C(=O)N[C@@H](C)C(=O)N[C@@H](C)C(=O)N[C@H](C(=O)N[C@@H](CC(C)C)C(N)=O)C(C)C)C(C)C [Peptide 14, HSTzGI FTTz(D)SY SRYRK QNIAVK KYLAA VL] (H-HS[Ala(1H-tetrazol-5-yl)]GIFT[X1]SYSRYRKQ[Nle]AVKKYLAAVL-NH2) | 96.3% | 84.5% |  |
| CCCC[C@H](NC(=O)[C@H](CCC(N)=O)NC(=O)[C@H](CCCCN)NC(=O)[C@H](CCCNC(=N)N)NC(=O)[C@H](Cc1ccc(O)cc1)NC(=O)[C@H](CCCNC(=N)N)NC(=O)[C@H](CO)NC(=O)[C@H](Cc1ccc(O)cc1)NC(=O)[C@H](CO)NC(=O)[C@H](Cc1noc(=O)[nH]1)NC(=O)[C@@H](NC(=O)[C@H](Cc1ccccc1)NC(=O)[C@@H](NC(=O)CNC(=O)[C@H](Cc1noc(=O)[nH]1)NC(=O)[C@H](CO)NC(=O)[C@H](Cc1c[nH]cn1)NC(C)=O)[C@@H](C)CC)[C@@H](C)O)C(=O)N[C@@H](C)C(=O)N[C@H](C(=O)N[C@@H](CCCCN)C(=O)N[C@@H](CCCCN)C(=O)N[C@@H](Cc1ccc(O)cc1)C(=O)N[C@@H](CC(C)C)C(=O)N[C@@H](C)C(=O)N[C@@H](C)C(=O)N[C@H](C(=O)N[C@@H](CC(C)C)C(N)=O)C(C)C)C(C)C [Peptide 22, HS(50xa)GI FT(50xa)SY SRYRK QNIAVK KYLAA VL] (Ac-HS[X2]GIFT[X2]SYSRYRKQ[Nle]AVKKYLAAVL-NH2) |  |  | survival rate after correction for water, 40° C. 1 week ([1]; 1 week (Table 10)): 89.7%; survival rate after correction for water, 40° C. 4 week ([1]; 4 weeks (Table 10)): 79.7% |
| Ac-HA[Tz]GIFA[Tz]AYSRYRKAAAVKKYLAAVL-NH2 [Peptide 30] |  |  | EC50, cAMP assay (Hit Hunter cAMP, chemiluminescence RLU) (PAC1 receptor): 2.29 nM; EC50, cAMP assay (Hit Hunter cAMP, chemiluminescence RLU) (VPAC1 receptor): 0.113 nM |
| HS[Tz]GIFA[Tz]AYARYRKQMAVKKYLAAVL-NH2 (also: Tz racemic) [Peptide 3] |  |  | EC50, cAMP assay (Hit Hunter cAMP, chemiluminescence RLU) (PAC1 receptor): 0.689 nM; EC50, cAMP assay (Hit Hunter cAMP, chemiluminescence RLU) (VPAC1 receptor): 0.111 nM |
